Holding throughout (test): In vitro antibacterial activity, MIC by agar dilution method
What all share (type): cell-based
(Agar dilution tests growth on a series of plates holding different concentrations.)

One test relates to K. oxytoca 1082E. The following applies: Klebsiella oxytoca, 1082E, read-out: In vitro Antibacterial Activity, MIC. As to the method:
(§1) The typical examples of the present compounds were tested for antimicrobial activity in vitro against twenty strains of Gram-positive and Gram-negative microorganisms.
(§2) The numerals in the table 1 show minimum inhibitory concentrations(MIC in µg/ml). The minimum inhibitory concentrations were determined according to the agar dilution method recommended by Japan Society of Chemotherapy[Chemotherapy., 29, 76 (1981)].

For another test, the system named is P. aeruginosa 1771. The settings on record: Pseudomonas aeruginosa, 1771, read-out: In vitro Antibacterial Activity, MIC. The protocol:
as §1, §2

A further test relates to E. coli TEM. The settings on record: Escherichia coli, read-out: In vitro Antibacterial Activity, MIC. The protocol:
as §1, §2

In another test the test system is P. aeruginosa 9027. The following applies: Pseudomonas aeruginosa, 9027, read-out: In vitro Antibacterial Activity, MIC. As to the method: as §1, §2
The subject of a further test is E. coli DC 0. The settings on record: Escherichia coli, DC0, read-out: In vitro Antibacterial Activity, MIC. As to the method: as §1, §2
Another test deals with P. aeruginosa 1771M. The following applies: Pseudomonas aeruginosa, 1771M, read-out: In vitro Antibacterial Activity, MIC. The protocol: as §1, §2
The next test deals with S. pyogenes A 308. The settings on record: Streptococcus pyogenes, A308, read-out: In vitro Antibacterial Activity, MIC. The protocol: as §1, §2
Another test relates to E. coli 1507E. The following applies: Escherichia coli, 1507E, read-out: In vitro Antibacterial Activity, MIC. The protocol:
as §1, §2

The next test concerns P. aeruginosa 1592E. The following applies: Pseudomonas aeruginosa, 1592E, read-out: In vitro Antibacterial Activity, MIC. The protocol: as §1, §2
A further test deals with S. aureus 503. The settings on record: Staphylococcus aureus, 503, read-out: In vitro Antibacterial Activity, MIC. The protocol: as §1, §2
In a further test the test system is S. aureus 285. The settings on record: Staphylococcus aureus, 285, read-out: In vitro Antibacterial Activity, MIC. As to the method: as §1, §2
Another test concerns S. pyogenes A 77. The settings on record: Streptococcus pyogenes, A77, read-out: In vitro Antibacterial Activity, MIC. As to the method: as §1, §2
The test system of another test is S. aureus SG 511. The following applies: Staphylococcus aureus, SG511, read-out: In vitro Antibacterial Activity, MIC. The protocol: as §1, §2
The subject of a further test is S. faecium MD 86. The following applies: Enterococcus faecium, MD86, read-out: In vitro Antibacterial Activity, MIC. As to the method:
as §1, §2

In a further test the test system is E. coli DC 2. The settings on record: Escherichia coli, DC2, read-out: In vitro Antibacterial Activity, MIC. The protocol:
as §1, §2

The next test deals with E. coli O 55. The settings on record: Escherichia coli, O55, read-out: In vitro Antibacterial Activity, MIC. As to the method: as §1
(§3) The minimum inhibitory concentrations were determined according to the agar dilution method recommended by Japan Society of Chemotherapy[Chemotherapy., 29, 76 (1981)].

Another test deals with E. cloacae 1321E. The settings on record: Enterobacter cloacae, 1321E, read-out: In vitro Antibacterial Activity, MIC. As to the method: as §1, §3
The test system of another test is K. aerogenes 1522E. The settings on record: Klebsiella aerogenes, 1522E, read-out: In vitro Antibacterial Activity, MIC. As to the method:
as §1, §3

Another test has as its system S. typhimurium. The settings on record: Salmonella enterica, TYPHIMURIUM, read-out: In vitro Antibacterial Activity, MIC. The protocol:
as §1, §3

The next test has as its system E. cloacae P99. The following applies: Enterobacter cloacae, P99, read-out: In vitro Antibacterial Activity, MIC. The protocol:
as §1, §3

One may read the MIC as the least concentration at which growth counts as inhibited.

In brackets after ≈: the same amount, converted by molar mass.

As for `CSCC1CCN(c2c(F)c(F)c3c(=O)c(C(=O)O)cn(C4CC4)c3c2F)C1` (stereo not shown) [Example 3, 1-cyclpropyl-5,6,8-trifluoro-7-(3-methylthiomethylpyrrolidinyl)-1,4-dihydro-4-oxo-3-quinolinecarboxylic acid], the minimal inhibitory concentration (MIC) in the test with K. oxytoca 1082E came out at 0.098 µg/mL (≈ 0.238 µM); in the test with P. aeruginosa 1771, 1.56 µg/mL (≈ 3.79 µM); with E. coli TEM, 3.12 µg/mL (≈ 7.58 µM); with P. aeruginosa 9027, 3.12 µg/mL (≈ 7.58 µM); with E. coli DC 0, 6.25 µg/mL (≈ 15.2 µM); with P. aeruginosa 1771M, 1.56 µg/mL (≈ 3.79 µM). The MIC came to 0.781 µg/mL (≈ 1.89 µM) in the test with S. pyogenes A 308; 3.12 µg/mL (≈ 7.58 µM) with E. coli 1507E; 3.12 µg/mL (≈ 7.58 µM) with P. aeruginosa 1592E; 0.007 µg/mL (≈ 0.017 µM) in the test on S. aureus 503; 0.013 µg/mL (≈ 0.0315 µM) with S. aureus 285; 1.56 µg/mL (≈ 3.79 µM) in the test with S. pyogenes A 77. The MIC in the test on S. aureus SG 511 amounted to 0.008 µg/mL (≈ 0.0194 µM); in the test on S. faecium MD 86, 0.781 µg/mL (≈ 1.89 µM); in the test with E. coli DC 2 it was 3.12 µg/mL (≈ 7.58 µM); with E. coli O 55, 0.195 µg/mL (≈ 0.473 µM); in the test with E. cloacae 1321E it was 0.391 µg/mL (≈ 0.948 µM); with K. aerogenes 1522E, 0.781 µg/mL (≈ 1.89 µM). Further, the minimum inhibitory concentration (MIC) in the test with S. typhimurium and with E. cloacae P99 was 0.391 µg/mL (≈ 0.948 µM) in each case.
For the molecule `CSCC1CCN(c2c(F)c(N)c3c(=O)c(C(=O)O)cn(C4CC4)c3c2F)C1` (stereo not shown) [Example 9, 1-cyclopropyl-5-amino-6,8-difluoro-7-(3-methylthiomethylpyrrolidinyl)-1,4-dihydro-4-oxo-3-quinolinecarboxylic acid], the MIC with K. oxytoca 1082E was 1.56 µg/mL (≈ 3.82 µM); with P. aeruginosa 1771 it was 1.56 µg/mL (≈ 3.82 µM); in the test on E. coli TEM it was 0.025 µg/mL (≈ 0.0611 µM); in the test on P. aeruginosa 9027, 3.12 µg/mL (≈ 7.63 µM); with E. coli DC 0, 3.12 µg/mL (≈ 7.63 µM); in the test with P. aeruginosa 1771M it was 0.781 µg/mL (≈ 1.91 µM). Further, the MIC in the test on S. pyogenes A 308 is 0.195 µg/mL (≈ 0.476 µM); in the test with E. coli 1507E it was 0.025 µg/mL (≈ 0.0611 µM); in the test with P. aeruginosa 1592E it was 3.12 µg/mL (≈ 7.63 µM); in the test on S. aureus 503, 0.007 µg/mL (≈ 0.0171 µM); in the test with S. aureus 285, 0.025 µg/mL (≈ 0.0611 µM); with S. pyogenes A 77, 0.391 µg/mL (≈ 0.955 µM). Also, the minimum inhibitory concentration (MIC) in the test on S. aureus SG 511 came out at 0.004 µg/mL (≈ 0.00977 µM); with S. faecium MD 86 it was 1.2 µg/mL (≈ 2.92 µM); in the test with E. coli DC 2 it was 0.195 µg/mL (≈ 0.476 µM); with E. coli O 55, 0.013 µg/mL (≈ 0.0317 µM); with E. cloacae 1321E it was 0.049 µg/mL (≈ 0.12 µM); in the test on K. aerogenes 1522E, 3.12 µg/mL (≈ 7.63 µM). Also, the minimum inhibitory concentration (MIC) in the test on S. typhimurium and in the test with E. cloacae P99 was 0.049 µg/mL (≈ 0.12 µM) throughout.

The record behind these values is patent EP0500835B1, “A NOVEL QUINOLONE CARBOXYLIC ACID DERIVATIVE” (DAEWOONG PHARMACEUTICAL CO., LTD., priority 1990, dated 1992).
